Assay [1] relates to Monographella nivalis var. nivalis. Description: Lytic activity against Monographella nivalis var. nivalis MAFF 305031 assessed as hyphal lysis at 0.2 mg/ml after 48 hr by cotton blue staining. It counts as functional.
Assay [2] has the same test system. Description: Lytic activity against Monographella nivalis var. nivalis MAFF 305031 assessed as hyphal lysis at 0.025 to 0.2 mg/ml after 48 hr by cotton blue staining. It counts as functional, organism-based.
Assay [3] shares this test system. The assay can be described thus: Lytic activity against Monographella nivalis var. nivalis MAFF 305031 assessed as hyphal lysis after 48 hr by cotton blue staining. It counts as functional, organism-based.
Assay [4] shares this test system. The assay can be described thus: Lytic activity against Monographella nivalis var. nivalis MAFF 305031 assessed as hyphal lysis at 0.05 mg/ml after 48 hr by cotton blue staining. It counts as functional.

The values that follow come from ChEMBL document CHEMBL3045266, “Lytic activity of l-menthol derivatives against the snow blight disease fungus, Micronectriella nivalis” (2003).

Calls of active or inactive are those of the source. No cut-off for these calls is given here.

In the case of `CC(=O)O[C@H]1C[C@@H](C(C)C)[C@H](OC(C)=O)C[C@@H]1C`, in assay [1], the Activity is 91.5%. Further, the result in assay [2] was Active.
On to `CC(C)[C@@H]1CC[C@@H](C)C[C@H]1O` [LEVOMENTHOL], for which the Activity in assay [1] amounted to 45.7%.
With `CC(=O)O[C@H]1C[C@@H](C(C)(C)O)[C@H](OC(C)=O)C[C@@H]1C`, the Activity in assay [1] came out at 95.2%. For the same compound, the outcome in assay [2] was Active.
Take `CC(=O)O[C@@H]1C[C@H](C)CC[C@H]1C(C)C`: the Activity in assay [1] amounted to 51.2%. Moreover, the outcome in assay [2] was Active.
Regarding `CC(C)[C@@H]1CC[C@](C)(O)C[C@H]1O` [(-)-(1S,3R,4S)-1-HYDROXYMENTHOL], the Activity in assay [1] is 63.9%; in assay [3] it was “Dose-dependent effect”.
For `C[C@H]1C[C@@H](O)[C@H](C(C)(C)O)C[C@@H]1O`, the Activity was 81.9% in assay [1], “Dose-dependent effect” in assay [3] and 68.1% in assay [4].
Take `CC(=O)O[C@@H]1C[C@@](C)(O)CC[C@H]1C(C)C` [(-)-(1S,3R,4S)-1-HYDROXYMENTHYL 3-MONOACETATE]: the Activity in assay [1] came to 66%. In assay [2], the result was Active.
`CC(C)[C@@H]1C[C@H](O)[C@@H](C)C[C@H]1O` [(-)-(1S,3R,4S,6S)-6-HYDROXYMENTHOL]: the Activity was 85% in assay [1], “Dose-dependent effect” in assay [3] and 57.1% in assay [4].
